Data as given in publication PMC8286840, “Identifying SARS-CoV-2 antiviral compounds by screening for small molecule inhibitors of Nsp3 papain-like protease” (Biochemical Journal, 2021).
Structures can show the parent of a compound that is named as a salt. Where two headings read alike, the source gives them in different places. *1 amine or outer side, *2 acyl side, *3 side chain or, on linkers, in order; H or OH if unused. Where a SMILES comes first, the peptide text is derived from it. Bridges are numbered along the chain shown (N, C = ends). Roman numbers before positions name the chains, in order. [ ]: non-standard residue; d: D form. Actinocin(9to1) = Cc1c2oc3c(C)ccc(C(=O)[*:1])c3nc-2c(C(=O)[*:2])c(N)c1=O; NMeV = CN[C@H](C(=O)O)C(C)C; Sar = CNCC(=O)O

How the values were obtained:
[1] = molecular target: T1, SARS-CoV-2 PLpro (nsp3 1564–1878) (Severe acute respiratory syndrome coronavirus 2, UniProt P0DTD1); assay: biochemical; design: FRET-quenched peptide (Pro3) cleavage by PLpro, 10 min pre-incubation, slope over 20 min, normalised to no-compound control; conditions: read-out: % of control remaining
[2] = molecular target: T1, SARS-CoV-2 PLpro (nsp3 1564–1878); assay: biochemical; design: FRET-quenched peptide (Pro3) cleavage by PLpro, 10 min pre-incubation, slope over 20 min, normalised to no-compound control; conditions: read-out: % of control remaining; remark: listed apart in the source

O=C(O[C@H]1C[N+]2(CCCOc3ccccc3)CCC1CC2)C(O)(c1cccs1)c1cccs1 [Aclidinium Bromide] gave a remaining activity at 1.25 µM ([1]; Well no.=5358, low concentration screen) of 100% and a remaining activity at 3.75 µM ([2]; Well no.=5358, high concentration screen) of 97.4%.
Compound CCN1C[C@]2(COC)[C@H](O)C[C@H](OC)[C@@]34[C@@H]5C[C@@]6(O)[C@H](OC(=O)c7ccccc7)[C@@H]5[C@@](OC(C)=O)([C@@H]([C@H](OC)[C@H]23)[C@@H]14)[C@@H](O)[C@@H]6OC [Aconitine] has a remaining activity at 1.25 µM [1] of 96% and a remaining activity at 3.75 µM [2] of 98.5%.
CC(=O)Nc1ccc(CC(=O)O)cc1 [Actarit] showed a remaining activity at 1.25 µM ([1]; Well no.=1907, low concentration screen) of 96.1% and a remaining activity at 3.75 µM ([2]; Well no.=1907, high concentration screen) of 95.2%.
In the case of Cc1c2oc3c(C)ccc(C(=O)N[C@@H]4C(=O)N[C@H](C(C)C)C(=O)N5CCC[C@H]5C(=O)N(C)CC(=O)N(C)[C@@H](C(C)C)C(=O)O[C@@H]4C)c3nc-2c(C(=O)N[C@@H]2C(=O)N[C@H](C(C)C)C(=O)N3CCC[C@H]3C(=O)N(C)CC(=O)N(C)[C@@H](C(C)C)C(=O)O[C@@H]2C)c(N)c1=O [Actinomycin D] (I: T[dV]P[Sar][NMeV] / II: T[dV]P[Sar][NMeV]; ester I:1-I:C, II:1-II:C; linker I:N-II:N via Actinocin(9to1)), the remaining activity at 1.25 µM ([1]; Well no.=3075, low concentration screen) is reported as 103% and the remaining activity at 3.75 µM ([2]; Well no.=3075, high concentration screen) is reported as 103%.
With CCCCC[C@H](CC(=O)NO)C(=O)N[C@H](C(=O)N1CCC[C@H]1CO)C(C)C [Actinonin] the remaining activity at 1.25 µM ([1]; Well no.=21, low concentration screen) was 97.8% and the remaining activity at 3.75 µM ([2]; Well no.=21, high concentration screen) was 97.8%.
Nc1nc2c(ncn2COCCO)c(=O)[nH]1 [Acycloguanosine] showed a remaining activity at 1.25 µM ([1]; Well no.=2073, low concentration screen) of 103% and a remaining activity at 3.75 µM ([2]; Well no.=2073, high concentration screen) of 106%.
Nc1nc2c(ncn2COCCO)c(=O)[nH]1 [Acyclovir] showed a remaining activity at 1.25 µM ([1]; Well no.=159, low concentration screen) of 104%, a remaining activity at 1.25 µM ([1]; Well no.=8000, low concentration screen) of 92.6% and a remaining activity at 3.75 µM ([2]; Well no.=159, high concentration screen) of 103%. For the same compound, the remaining activity at 3.75 µM ([2]; Well no.=8000, high concentration screen) was 89.5%.
Work on COc1ccc(-c2ccc3cc(C(=O)O)ccc3c2)cc1[C@]12C[C@H]3C[C@H](C[C@H](C3)C1)C2 [Adapalene] yielded a remaining activity at 1.25 µM ([1]; Well no.=1939, low concentration screen) of 99.2% and a remaining activity at 3.75 µM ([2]; Well no.=1939, high concentration screen) of 103%.
O=C(OC12CC3CC(CC(C3)C1)C2)c1ccc(NCc2cc(O)ccc2O)cc1 [Adaphostin] showed a remaining activity at 1.25 µM ([1]; Well no.=5772, low concentration screen) of 105% and a remaining activity at 3.75 µM ([2]; Well no.=5772, high concentration screen) of 109%.
With O=C(O)/C=C/c1ccc(-c2ccc(O)c(C34CC5CC(CC(C5)C3)C4)c2)cc1 [Adarotene] the remaining activity at 1.25 µM ([1]; Well no.=6342, low concentration screen) was 101% and the remaining activity at 3.75 µM ([2]; Well no.=6342, high concentration screen) was 99%.
Work on Nc1ncnc2nc[nH]c12 [Adenine sulfate] yielded a remaining activity at 1.25 µM ([1]; Well no.=5006, low concentration screen) of 97.9% and a remaining activity at 3.75 µM ([2]; Well no.=5006, high concentration screen) of 85.9%.
Nc1[nH]cnc2ncnc1-2 [Adenine] showed a remaining activity at 1.25 µM ([1]; Well no.=5004, low concentration screen) of 108%, a remaining activity at 1.25 µM ([1]; Well no.=7253, low concentration screen) of 101% and a remaining activity at 3.75 µM ([2]; Well no.=5004, high concentration screen) of 107%. The remaining activity at 3.75 µM ([2]; Well no.=7253, high concentration screen) was 98.1%.
Work on Nc1ncnc2c1ncn2[C@@H]1O[C@H](COP(=O)(O)OP(=O)(O)O)[C@@H](O)[C@H]1O [Adenosine 5'-diphosphate] yielded a remaining activity at 1.25 µM ([1]; Well no.=7363, low concentration screen) of 104%, a remaining activity at 1.25 µM ([1]; Well no.=7868, low concentration screen) of 102% and a remaining activity at 3.75 µM ([2]; Well no.=7363, high concentration screen) of 105%. For the same compound, the remaining activity at 3.75 µM ([2]; Well no.=7868, high concentration screen) was 104%.
For Nc1ncnc2c1ncn2[C@@H]1O[C@H](COP(=O)(O)O)[C@@H](O)[C@H]1O [Adenosine 5'-monophosphate monohydrate], the remaining activity at 1.25 µM ([1]; Well no.=7902, low concentration screen) was 96.3%, the remaining activity at 1.25 µM ([1]; Well no.=8121, low concentration screen) was 106% and the remaining activity at 3.75 µM ([2]; Well no.=7902, high concentration screen) was 101%.
With Nc1ncnc2nc(-c3ccc(N4CCOCC4)nc3)cc(-c3cccc(Br)c3)c12 [Adenosine Kinase Inhibitor] the remaining activity at 1.25 µM ([1]; Well no.=2694, low concentration screen) was 102% and the remaining activity at 3.75 µM ([2]; Well no.=2694, high concentration screen) was 103%.
Nc1ncnc2c1ncn2[C@@H]1O[C@H](COP(=O)(O)O)[C@@H](O)[C@H]1O [Adenosine monophosphate] gave a remaining activity at 1.25 µM ([1]; Well no.=7109, low concentration screen) of 103%, a remaining activity at 1.25 µM ([1]; Well no.=7816, low concentration screen) of 107% and a remaining activity at 3.75 µM ([2]; Well no.=7109, high concentration screen) of 102%. The remaining activity at 3.75 µM ([2]; Well no.=7816, high concentration screen) was 104%.
With Nc1ncnc2c1ncn2[C@@H]1O[C@H](CO)[C@@H](O)[C@H]1O [Adenosine] the remaining activity at 1.25 µM ([1]; Well no.=200, low concentration screen) was 94%, the remaining activity at 1.25 µM ([1]; Well no.=6301, low concentration screen) was 105% and the remaining activity at 1.25 µM ([1]; Well no.=8048, low concentration screen) was 87.9%. For the same compound, the remaining activity at 3.75 µM ([2]; Well no.=200, high concentration screen) was 95.6%, the remaining activity at 3.75 µM ([2]; Well no.=6301, high concentration screen) was 102% and the remaining activity at 3.75 µM ([2]; Well no.=8048, high concentration screen) was 88.7%.
Work on CCN(CC)CCOC(=O)C(c1ccccc1)c1ccccc1 [Adiphenine HCl] yielded a remaining activity at 1.25 µM ([1]; Well no.=5060, low concentration screen) of 105% and a remaining activity at 3.75 µM ([2]; Well no.=5060, high concentration screen) of 105%.
Compound O=C(O)CCCCC(=O)O [Adipic acid] has a remaining activity at 1.25 µM ([1]; Well no.=6869, low concentration screen) of 102% and a remaining activity at 3.75 µM ([2]; Well no.=6869, high concentration screen) of 98.1%.
For O=C(COc1ccc(C(=O)c2ccccc2)cc1)NC1CCN(Cc2ccccc2)CC1 [AdipoRon], the remaining activity at 1.25 µM ([1]; Well no.=7239, low concentration screen) was 100% and the remaining activity at 3.75 µM ([2]; Well no.=7239, high concentration screen) was 96.7%.
In the case of Cc1cc(O[C@@H](CCC(F)(F)F)c2ccc(C(=O)NCCC(=O)O)cc2)cc(C)c1-c1ccc(C(C)(C)C)cc1 [Adomeglivant], the remaining activity at 1.25 µM ([1]; Well no.=7043, low concentration screen) is reported as 99.3% and the remaining activity at 3.75 µM ([2]; Well no.=7043, high concentration screen) is reported as 98.4%.
In the case of Fc1ccc(-c2cncc(CN3CCN(c4cccc5c4OCCO5)CC3)c2)cc1 [Adoprazine], the remaining activity at 1.25 µM ([1]; Well no.=8443, low concentration screen) is reported as 100% and the remaining activity at 3.75 µM ([2]; Well no.=8443, high concentration screen) is reported as 98.5%.
O=C(C[S+]([O-])C(c1ccccc1)c1ccccc1)NO (centres unmarked) [Adrafinil] showed a remaining activity at 1.25 µM ([1]; Well no.=6233, low concentration screen) of 102% and a remaining activity at 3.75 µM ([2]; Well no.=6233, high concentration screen) of 94.6%.
CNCC(=O)c1ccc(O)c(O)c1 [Adrenalone (hydrochloride)] gave a remaining activity at 1.25 µM ([1]; Well no.=7433, low concentration screen) of 103% and a remaining activity at 3.75 µM ([2]; Well no.=7433, high concentration screen) of 103%.
With CNCC(=O)c1ccc(O)c(O)c1 [Adrenalone HCl] the remaining activity at 1.25 µM ([1]; Well no.=5034, low concentration screen) was 94.7% and the remaining activity at 3.75 µM ([2]; Well no.=5034, high concentration screen) was 94.4%.
For CCCCC/C=C/C/C=C/C/C=C/C/C=C/CCCCCC(=O)O [Adrenic acid (22:4 n-6)], the remaining activity at 1.25 µM ([1]; Well no.=4253, low concentration screen) was 105% and the remaining activity at 3.75 µM ([2]; Well no.=4253, high concentration screen) was 98.5%.
N=C(N)NCCCCN [Agmatine (sulfate)] gave a remaining activity at 1.25 µM ([1]; Well no.=7803, low concentration screen) of 104% and a remaining activity at 3.75 µM ([2]; Well no.=7803, high concentration screen) of 106%.
N=C(N)NCCCCN [Agmatine sulfate] was tested, and the remaining activity at 1.25 µM ([1]; Well no.=261, low concentration screen) was 93.6% and the remaining activity at 3.75 µM ([2]; Well no.=261, high concentration screen) was 96.2%.
In the case of COc1ccc2cccc(CCNC(C)=O)c2c1 [Agomelatine], the remaining activity at 1.25 µM ([1]; Well no.=5143, low concentration screen) is reported as 100%, the remaining activity at 1.25 µM ([1]; Well no.=7340, low concentration screen) is reported as 99.9% and the remaining activity at 3.75 µM ([2]; Well no.=5143, high concentration screen) is reported as 100%. It also gave a remaining activity at 3.75 µM ([2]; Well no.=7340, high concentration screen) of 102%.
CC1=C[C@@H]2c3cccc4[nH]cc(c34)C[C@H]2N(C)C1 [Agroclavine] showed a remaining activity at 1.25 µM ([1]; Well no.=210, low concentration screen) of 94.3% and a remaining activity at 3.75 µM ([2]; Well no.=210, high concentration screen) of 93.5%.
With CC[C@H]1[C@@H]2C[C@H]3[C@@H]4N(C)c5ccccc5[C@]45C[C@@H]([C@H]2[C@H]5O)N3[C@@H]1O [Ajmaline] the remaining activity at 1.25 µM ([1]; Well no.=3437, low concentration screen) was 98.9% and the remaining activity at 3.75 µM ([2]; Well no.=3437, high concentration screen) was 98.2%.
